Measurements as given in the METLIN SMRT retention time set (Domingo-Almenara et al. 2019).

Experiment: gradient 5% acetonitrile 3 min, to 50% in 2 min, to 85% in 15 min, held 3 min, 100 µL/min
Settings: column: Zorbax Extend-C18 2.1 x 50 mm; eluents: water / acetonitrile, 0.1% formic acid
Outline: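 Using water and acetonitrile that each contained 0.1% formic acid, mixtures of ~100 pure standards were separated at 100 μL/min on a Zorbax Extend-C18 column (2.1 × 50 mm, 1.8 μm). The HPLC fed a quadrupole time-of-flight mass spectrometer working in positive and negative ionization mode, with dead and dwell volumes of 40 μL and 900 μL. Data were acquired over 3 months. Retention time was read from computationally picked adduct peaks after manual inspection of each.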

| SMILES | RP-LC retention time [s] |
| --- | --- |
| CCOc1ccc(NC(=O)CSC2=C(C#N)C(c3cccs3)CC(=O)N2)cc1 (centres undefined) | 844 |
| CCc1cc(-c2csc(S(=O)(=O)N3CCN(c4ccc(Cl)cc4)CC3)c2)on1 | 1200 |
| CCn1cc(-c2nc(C)c(C(=O)Nc3ccc4c(c3)OCCO4)s2)c2cccnc21 | 925 |
| CC1(C)CC(=O)C2=C(C1)N(CC1CCCO1)C(=O)C2(NC(=O)c1cccnc1)C(F)(F)F (centres undefined) | 719 |
| CCN1C(=O)C(C)(C(=O)NCc2cccc(OC)c2)Oc2cccnc21 (centres undefined) | 829 |
| Cc1ccc2[nH]c(=O)c(CCC(=O)NCCc3ccccn3)cc2c1 | 577 |
| Cc1ccc(CNC(=O)N2CC(c3nc(C)no3)C3(CCOCC3)C2)cc1 (centres undefined) | 731 |
| O=C(Cn1c(=O)n(C2CC2)c(=O)c2nscc21)NCc1cccs1 | 670 |
| CCc1ccc(Oc2cc(N3CCC(C(=O)NCc4ccc(OC)cc4)CC3)ncn2)cc1 | 988 |
| Cc1cc(C(=O)Nc2cccc(Cl)c2)nc2cc(-c3ccco3)nn12 | 1020 |
| CCSc1nnc(NC(=O)c2nnn(-c3nc4c(s3)CCCC4)c2C)s1 | 1190 |
| O=C(NCCCN1CCC(Cc2ccccc2)CC1)C1CCCN(S(=O)(=O)N2CCOCC2)C1 (centres undefined) | 660 |
| Cc1cc(=O)n(CC(=O)Nc2cc(F)ccc2F)c(-c2ccc(F)cc2)n1 | 1090 |
| CCc1ccccc1NC(=O)c1cc(C(C)C)n2nccc2n1 | 1240 |
| COCCOC(=O)C1=C(C)NC(C)=C(C(=O)OC/C=C/c2ccccc2)C1c1cccc([N+](=O)[O-])c1 (centres undefined) | 1210 |
| CCCS(=O)(=O)Nc1cccc(-c2cn3ccc(C)cc3n2)c1 | 614 |
| COCCN1C(=O)[C@H]2CN(Cc3ccc(C)cc3)C[C@H]2C1=O | 616 |
| CC1(C(=O)Nc2ccccc2)Oc2cccnc2NC1=O (centres undefined) | 655 |
| Cn1nc(C(=O)Nc2ccccc2F)cc1C(F)(F)F | 951 |
| CC(C)(C)c1noc(-c2ccnc(-n3cnc(C(=O)NC4CCCCC4)c3)c2)n1 | 1100 |
| Cc1ccc(NS(=O)(=O)c2ccc3c(c2)CCCC(=O)N3)cc1Cl | 806 |
| COc1cccc(-n2cc(C(=O)OCc3ccco3)c3ccccc3c2=O)c1 | 1100 |
| CCOC(=O)c1c(C)c(S(=O)(=O)N2CCN(c3ccccn3)CC2)c(C)n1C | 690 |

| SMILES | RP-LC retention time [s] |
| --- | --- |
| NS(=O)(=O)c1ccc(NC(=O)c2csc3c2CCCC3)cc1 | 769 |
| O=C(c1ccccc1[N+](=O)[O-])N1CCN(Cc2nc(-c3ccco3)cs2)CC1 | 682 |
| Cc1noc(C)c1Cc1ccc(C(=O)N2CCCCCCNC(=O)[C@@H]3CCCC[C@@H]32)o1 | 839 |
| CCC(=O)N1CCc2c(C(=O)N3CCN(c4ccccc4)CC3)cccc21 | 829 |
| COc1ccc(OC)c(NC(=O)c2cc(NC(=O)C3CCC3)cc3nc(C)ccc23)c1 | 682 |
| Cc1ccc(-n2nc(N3CCCN(C(=O)c4ccc(Br)o4)CC3)ccc2=O)cc1C | 824 |
| Nc1cc(Nc2ccc(Br)cc2)nc(N)n1 | 688 |
| CCOCCCNC(=O)N1CCN(c2nnc(C)c3c(C)n(-c4ccc(C)cc4)nc23)CC1 | 669 |
| Cc1ccc(NC(=O)N2CCC(CC(=O)N3CCCCC3)CC2)cc1C | 793 |
| CCCNC(=O)C1CCN(c2ccc(SCC(=O)Nc3ccc(CC)cc3)nn2)CC1 | 694 |
| CN(CC#N)C(=O)c1ccc(N2CCc3ccccc32)s1 | 913 |
| CCc1ccccc1S(=O)(=O)NCC(c1cccnc1)c1c[nH]c2ccccc12 (centres undefined) | 706 |
| Cc1nc([C@@H]2CN(C(=O)c3noc(C)c3Cn3cccn3)C[C@H]2C(N)=O)n[nH]1 | 578 |
| CC1CCN(c2cc(-c3noc(C(=O)NCCN4CCOCC4)n3)ccn2)CC1 | 572 |
| CCC(C(=O)NCCc1c[nH]c2ccc(C)cc12)n1c2ccccc2c2cnn(C)c(=O)c21 (centres undefined) | 957 |
| CCN(CC)CCOC(=O)C(O)(c1ccccc1)c1ccccc1 | 714 |
| CC(C)(CO)NCc1ccc(-c2ccc(Cl)cc2)o1 | 655 |
| CCOc1ccc(-n2ccnc(NC(=O)Nc3ccccc3)c2=O)cc1 | 981 |
| CCc1ccc(S(=O)(=O)N2CCC3(CC2)NCCN=C3NCc2ccc(F)c(Cl)c2)cc1 | 831 |
| CCn1c(=O)c(NCc2ccc(C(C)C)cc2)nc2ccncc21 | 720 |
| CC(C)CNC(=O)c1nc2cccnc2n(CC(C)C)c1=O | 940 |
| COc1cc(CNC(=O)C2=Cc3ccccc3OC2)cc(OC)c1OC | 835 |
| CCn1cc(CCNC(=O)Nc2ccccc2Br)c2cccnc21 | 774 |

| SMILES | RP-LC retention time [s] |
| --- | --- |
| COc1cc2ncnc(Nc3ccc(NC(=O)c4ccccc4)cc3)c2cc1OC | 687 |
| CCOC(=O)N1CCN(C(=O)CSCC(=O)Nc2nc(-c3ccc(OC)cc3)cs2)CC1 | 841 |
| CCN1CCC2(CC1)OC(=O)C(C)=C2C(=O)NCc1ccc(Cl)cc1 | 643 |
| CCCCC1CCC(C(=O)Nc2nc(-c3ccc4c(c3)NC(=O)CO4)c(C)s2)CC1 (centres undefined) | 1240 |
| O=C(NCC1CCN(Cc2ccco2)CC1)C(=O)Nc1ccc(F)c(Cl)c1 | 584 |
| CCOC(=O)c1ccccc1NC(=O)Cn1c(=O)n(CC)c(=O)c2c1cc(C)n2C | 978 |
| Cc1ccc(CN2CCN(CC(=O)N3CCN(Cc4ccccc4)CC3)C(=O)C2=O)cc1 | 640 |
| COC(=O)c1c(-c2ccccc2)csc1NC(=O)C1CCN(C(C)=O)CC1 | 862 |
| Cc1ccc2c(c1)N(C(=O)c1ccc(C#N)cc1)CCO2 | 925 |
| COc1cc(Cc2nc(-c3ccc4nnc(C)n4c3)no2)cc(OC)c1 | 796 |
| O=C(CN1CCN(Cc2ccccc2)C1=O)N1CCN(c2ccc(F)cc2)CC1 | 813 |
| CCc1ccc(NC(=O)Cn2cnc3nc4c(cc3c2=O)CCCC4)cc1 | 788 |
| Cc1cccc(NS(=O)(=O)c2cc(-c3cc(C(F)(F)F)on3)sc2C)c1C | 1240 |
| CC(=O)c1ccc(NC(=O)c2cnc(-c3ccc(C(F)(F)F)cc3)nc2C)cc1 | 1030 |
| CC(C)NC(=O)c1ccc2c(c1)CCN2C(=O)C1CC1 | 808 |
| O=C(Cc1ccccc1F)N1CCCn2nc(-c3ccc(Cl)cc3)cc2C1 | 979 |
| CCOc1ccccc1NC(=O)NC1CCN(c2cc(N3CCCC3)cnn2)C1 (centres undefined) | 594 |
| O=C(NC1CCCCCCC1)C1CCN(C(=O)c2ccc(F)cc2)CC1 | 858 |
| COc1ccc(CCNC(=O)Cn2nc3n(c2=O)CCCCC3)cc1OC | 641 |
| Cc1sc2ccn(C)c(=O)c2c1C(=O)NC1CCCCCC1 | 804 |
| CCn1cnc(S(=O)(=O)N2CCC(C(=O)Nc3cc(C)ccc3C)CC2)c1 | 719 |
| Cc1ccc(N2C(=O)CN(S(C)(=O)=O)CC2(C)C(=O)NCc2ccc(Cl)cc2)cc1C (centres undefined) | 874 |
| CCN1CCN(c2c(S(=O)(=O)c3ccc(C)c(C)c3)cnc3cc(OC)c(OC)cc23)CC1 | 629 |

| SMILES | RP-LC retention time [s] |
| --- | --- |
| COc1ccc(-c2nc3ncccn3c2Nc2ccccc2)cc1 | 700 |
| Cc1c(Cl)cccc1Nc1c(-c2ccc(N3CCOCC3)cc2)nc2ncccn12 | 758 |
| COc1ccc(NC(=O)N2CCC3(CC2)NC(=O)c2ccc(F)cc2N3C)cc1 | 727 |
| O=C(Cn1c(=O)oc2ccccc21)N1CCN(c2ccccn2)CC1 | 598 |
| CSc1cccc(NC(=O)Cn2ccn3nc(-c4ccccc4)c(CO)c3c2=O)c1 | 852 |
| COC1CCC12CCN(S(=O)(=O)c1ccc(F)c(C)c1)CC2 (centres undefined) | 1030 |
| O=C(CN1C(=O)C2CCCCN2c2ccc(S(=O)(=O)N3CCCC3)cc21)NCC1COCCO1 (centres undefined) | 736 |
| C=CCn1nc2ccc(S(=O)(=O)N3CCCCC3)cn2c1=O | 778 |
| CC(NC(=O)c1ccccc1)c1nc(-c2ccc3oc(-c4ccccc4)nc3c2)no1 (centres undefined) | 1090 |
| Cc1ccc(NS(=O)(=O)c2c(-c3nc(C4CCC4)no3)c(C)n(C)c2C)cc1 | 989 |
| CCOc1c(C)cc(S(=O)(=O)NCC(C)(O)COC)cc1C (centres undefined) | 752 |
| CCc1oc2cc(S(=O)(=O)Nc3ccc(S(=O)(=O)Nc4nccs4)cc3)ccc2c1C(=O)c1cc(Br)c(O)c(Br)c1 | 895 |
| COc1cc(SC)ccc1C(=O)NCCc1c[nH]c2ccc(C)cc12 | 953 |
| Cc1nc2cc(-c3noc(-c4ccccc4C(F)(F)F)n3)ccc2o1 | 1080 |
| COc1ccccc1CNC(=O)Cn1c(=O)c2cc(-c3ccco3)nn2c2ncccc21 | 797 |
| COc1ccc(-n2ccn3c(CCC(=O)NCCc4c[nH]c5ccccc45)nnc3c2=O)cc1 | 704 |
| Cc1nc(-c2ccncc2)nc2c1CCC(=O)N2Cc1ccncc1 | 540 |
| CCCn1cc(CCNC(=O)c2ccccc2Br)c2cccnc21 | 748 |
| COc1ccccc1-c1nnc(-c2cc(S(=O)(=O)N3CCC(C)CC3)ccc2Cl)o1 | 1160 |
| CSc1cccc(NC(=O)N2CCC(C)(C(=O)NCc3ccccc3)CC2)c1 | 852 |
